Assay results from patent US20150328109A1, “DERMAL COMPOSITIONS CONTAINING UNNATURAL HYGROSCOPIC AMINO ACIDS” (MEDPHARM LIMITED, priority 2012, published 2015).

Experiments:
RHE tissues = assay: RHE irritation assessment Method 1: SkinEthic Skin Irritation Test-42 bis assay (MTT), plus 24 h contact time; type: cell-based, human; settings: 42 min and 24 h exposure; 5 and 1% w/v α-H-G, 10 and 1% w/v L-h-S in water
Text: The purpose of this experiment was to investigate the potential of alpha-hydroxyglycine (α-H-G) and L-homoserine (L-h-S) to cause skin irritation. The method was based on the validated SOP for the “The SkinEthic Skin Irritation Test-42 bis assay” in accordance to OECD guideline Test No. 439: In Vitro Skin Irritation. The protocol is provided in Section 1.2. Further details on the method can be found in the SkinEthic™ RHE SOP, Version 2.1 (July 2009), SkinEthic skin irritation test-42 bis test method for the prediction of acute skin irritation of chemicals: 42 minutes application+42 hours post-incubation. Available at: [http://ecvam.jrc.ec.europa.eu].
In addition, a further experiment was performed where the contact time of the test solution with the tissue was increased to 24 h. Following which point an MTT assay was used to determine the tissue viability and the test solutions potential to cause irritation.
The following steps were completed on receipt of the tissues: • (i) Wells of 6-well plates were filled with 1 mL growth culture medium. • (ii) Tissue were removed from their packaging, cleaned to remove the transport agarose and inspected for signs of damage; damaged tissues were discarded. • (iii) The tissue were transferred into the growth culture medium then incubated at 37° C., 5% CO2 until application of the test solution.
1.2.1.1.6 Applications of 5 and 1% w/v α-H-G and 10 and 1% w/v L-h-S and Controls • (i) 16 μL±0.5 μL of the test solutions (5% w/v α-hydroxyglycine (α-H-G) in water, 1% w/v α-hydroxyglycine (α-H-G) in water, 10% w/v L-homoserine (L-h-S) in water, 1% w/v L-homoserine (L-h-S) in water) and negative (PBS) and positive (5% SDS) controls were dispensed onto the top of the epidermal tissue, using positive displacement pipette. […]

[1] = Snake study: water uptake into snake skin after treatment with amino acid solution; set-up: species or system Elaphe guttata, the American corn snake; settings: 24 h treatment with 1.33M amino acid solution, dried, then 40% RH
Experimental: • All experiments were performed in triplicate (i.e. three separate solutions, three pieces of skin, one per solution). […] Each piece was weighed and placed directly into one the of the amino acid solutions, one piece of snake skin per solution. • After 1 hour, the snake skin was removed from the solution and blotted dry on filter paper. The weight of the snake skin was recorded before the same snake skin was returned to the amino acid solution. • After an additional 23 hours (24 hours in total), the snake skin was again blotted dry on filter paper and weighed. • The snake skin, now having absorbed the test amino acid, was then placed in a vacuum desiccator over silica (0% RH) for 48 hours before being weighed.
• A 10% w/w concentration solution of each compound is made by stirring the compound (100 mg) in water (1 mL). Three separate solutions of each compound are made separately so that the experiment can be carried out in triplicate simultaneously. […] The weight of the snake skin is recorded before the same snake skin is returned to the same compound solution. • After an additional 23 hours (24 hours in total), the snake skin is again blotted dry on filter paper and weighed. • The snake skin is then placed in a vacuum desiccator over silica (0% relative humidity (RH)) for 48 hours before being weighed. […]

N[C@@H](CCO)C(=O)O [L-homoserine]
skin irritation potential (viability below 50% of negative control = irritant) (RHE tissues): non-irritants | average percentage weight increase after 24 h at 40% RH [1]: particularly advantageous properties
